{"source": "ChEMBL document CHEMBL1129043", "about": "“Preparation of phenolic paclitaxel metabolites” (J Med Chem, 1996)", "assay": "Ratio of ED50 for cytotoxicity against B16 melanoma to paclitaxel", "settings": "mouse", "data": [{"smiles": "CC(=O)O[C@H]1C(=O)[C@@]2(C)[C@H]([C@H](OC(=O)c3cccc(O)c3)[C@]3(O)C[C@H](OC(=O)[C@H](O)[C@@H](NC(=O)c4ccccc4)c4ccccc4)C(C)=C1C3(C)C)[C@]1(OC(C)=O)CO[C@@H]1C[C@@H]2O", "values": [{"measurement": "Ratio", "result": "> 20"}]}]}
